Results on ten compounds are retold here after patent US20150119373A1, “NOVEL BETULINIC ACID DERIVATIVES AS HIV INHIBITORS” (HETERO RESEARCH FOUNDATION, priority 2012, published 2015).

A short description of data set [1]: Cyto-toxicity assay (MTT) in MT2 cells without virus. The data set is classed as cell-based. The settings on record: human. As for the experimental part:
For cyto-toxicity assay the same amount of MT2 cells as in antiviral assay without virus was added to the 96 well plates. The cyto-toxicity was measured using MTT reagent in parallel with p24 estimation. The percent viability is calculated in comparison with vehicle control.

The subject of data set [2] is HIV-1 strain 92HT599. The data set can be described thus: Antiviral activity: p24 estimation in MT2 cells infected with HIV-1 strain 92HT599. The data set is classed as cell-based. Particulars: Human immunodeficiency virus 1, MT2 cells, HIV-1 92HT599, ~96 hours, p24; for inhibition at 0.1 µM: 100 nM, read-out: Antiviral activity % inhibition 100 nM; for inhibition at 1 µM: 1000 nM, read-out: Antiviral activity % inhibition 1000 nM. As for the experimental part:
MT2 cells were infected with HIV-1 strain 92HT599 (10 TCID 50/30000 cells). The infected cells were plated at the concentration of […] cells per well in 96 well plate. Test compound was added to the micro plate in defined format with the final concentration of DMSO (vehicle) is not more than 1%. Incubation was carried out in CO2 incubator for ˜96 hours for viral infection. At the end of incubation period an aliquot from each well was taken for p24 estimation. The quantitation of p24 is an index for antiviral activity of the compound. Percent inhibition was calculated with reference to control values (vehicle controls).
p-24 estimation was carried out using Advance biosciences kit as per the procedure detailed by supplier.

Broadly, the viability is a per cent measure of how many cells are alive, often set against a control. Low readings indicate more harm to the cells, high ones less harm to the cells. Usually inhibition stands for the drop in the measured response relative to a control, in per cent.

In data set [1], `CC(C)(CC(=O)O[C@H]1CC[C@]2(C)[C@H]3CC[C@@H]4C5[C@H](C6(C)CC6)CC[C@]5(C(=O)N[C@H]5C[C@@H](C(=O)N6CCOCC6)C5(C)C)CC[C@@]4(C)[C@]3(C)CC[C@H]2C1(C)C)C(=O)O` (stereo partly drawn) [Example 51, 4-(((1R,3aS,5aR,5bR,7aR,9S,11aR,11bR,13aR)-3a-(((1S,3R)-2,2-dimethyl-3-(morpholine-4-carbonyl)cyclobutyl)carbamoyl)-5a,5b,8,8,11a-pentamethyl-1-(1-methylcyclopropyl)icosahydro-1H-cyclopenta[a]chrysen-9-yl)oxy)-2,2-dimethyl-4-oxobutanoic acid] had a viability at 100 nM of 85% and a viability at 1000 nM of 83%. Further, in data set [2], the inhibition at 0.1 µM was 100% and the inhibition at 1 µM is 100%.
In data set [1], `C=C(C)[C@@H]1CC[C@]2(C(=O)N3CCCCC3)CC[C@]3(C)[C@H](CC[C@@H]4[C@@]5(C)CC[C@H](OC(=O)[C@H]6[C@@H](CC(=O)O)C6(C)C)C(C)(C)[C@@H]5CC[C@]43C)[C@@H]12` [Compound 2, 2-((1R,3S)-2,2-dimethyl-3-(((1R,3aS,5aR,5bR,7aR,9S,11aR,11bR,13aR,13bR)-5a,5b,8,8,11a-pentamethyl-3a-(piperidine-1-carbonyl)-1-(prop-1-en-2-yl)icosahydro-1H-cyclopenta[a]chrysen-9-yloxy)carbonyl)cyclopropyl)acetic acid] came in with a viability at 100 nM of 96% and a viability at 1000 nM of 95%. In data set [2], the inhibition at 0.1 µM was 77% and the inhibition at 1 µM is 98%.
For `CC(C)(CC(=O)O[C@H]1CC[C@]2(C)[C@H]3CC[C@@H]4[C@H]5[C@H](C6(C)CC6)CC[C@]5(C(=O)N5CCC(OCCN6CCOCC6)CC5)CC[C@@]4(C)[C@]3(C)CC[C@H]2C1(C)C)C(=O)O` [Example 47, 2,2-dimethyl-4-oxo-4-(((1R,3aS,5aR,5bR,7aR,9S,11aR,11bR,13aR,13bR)-5a,5b,8,8,11a-pentamethyl-1-(1-methylcyclopropyl)-3a-(4-(2-morpholinoethoxyl)piperidine-1-carbonyl)icosahydro-1H-cyclopenta[a]chrysen-9-yl)oxy)butanoic acid] the same measures were 100%, 96%, 100% and 99%.
For `CC(C)(CC(=O)O[C@H]1CC[C@]2(C)[C@H]3CC[C@@H]4[C@H]5[C@H](C6(C)CC6)CC[C@]5(C(=O)N5CCN(C(=O)C(C)(CO)CO)CC5)CC[C@@]4(C)[C@]3(C)CC[C@H]2C1(C)C)C(=O)O` [Example 35] the same measures were 70%, 81%, 26% and 84%.
The corresponding values for `[2H]C([2H])([2H])C(N1CCN(C(=O)[C@H]2C[C@@H](NC(=O)[C@]34CC[C@@H](C(=C)C)[C@@H]3[C@H]3CC[C@@H]5[C@@]6(C)CC[C@H](OC(=O)CC(C)(C)C(=O)O)C(C)(C)[C@@H]6CC[C@@]5(C)[C@]3(C)CC4)C2(C)C)CC1)C([2H])([2H])[2H]` [Example 8, 4-((1R,3aS,5aR,5bR,7aR,9S,11aR,11bR,13aR,13bR)-3a-((1R,3S)-3-(4-(1-methylethyl-2,2,2,1′,1′,1′-D6)piperazine-1-carbonyl)-2,2-dimethylcyclobutylcarbamoyl)-5a,5b,8,8,11a-pentamethyl-1-(prop-1-en-2-yl)icosahydro-1H-cyclopenta[a]chrysen-9-yloxy)-2,2-dimethyl-4-oxobutanoic acid] are 90%, 97%, 100% and 100%.
With `C=C(C)[C@@H]1CC[C@]2(C(=O)N[C@@H]3C[C@H](c4nnc(CC(C)C)o4)C3(C)C)CC[C@]3(C)[C@H](CC[C@@H]4[C@@]5(C)CC[C@H](OC(=O)CC(C)(C)C(=O)O)C(C)(C)[C@@H]5CC[C@]43C)[C@@H]12` [Example 16, 4-((1R,3aS,5aR,5bR,7aR,9S,11aR,11bR,13aR,13bR)-3a-((1R,3S)-3-(5-isobutyl-1,3,4-oxadiazol-2-yl)-2,2-dimethylcyclobutylcarbamoyl)-5a,5b,8,8,11a-pentamethyl-1-(prop-1-en-2-yl)icosahydro-1H-cyclopenta[a]chrysen-9-yloxy)-2,2-dimethyl-4-oxobutanoic acid], in data set [1], the viability at 100 nM was 81% and the viability at 1000 nM was 79%. Further, in data set [2], the inhibition at 0.1 µM was 100% and the inhibition at 1 µM was 100%.
As to `CC(C)(C)OC(=O)N1CCN(C(=O)[C@]23CC[C@@H](C4(C)CC4)[C@@H]2[C@H]2CC[C@@H]4[C@@]5(C)CC[C@H](OC(=O)CC(C)(C)C(=O)O)C(C)(C)[C@@H]5CC[C@@]4(C)[C@]2(C)CC3)CC1` [Example 37], in data set [1], the viability at 100 nM stood at 73% and the viability at 1000 nM stood at 72%. In addition, in data set [2], the inhibition at 0.1 µM is 30% and the inhibition at 1 µM is 99%.
For `CC(C)(CC(=O)O)CC(=O)O[C@H]1CC[C@]2(C)[C@H]3CC[C@@H]4C5[C@H](C6(C)CC6)CC[C@]5(C(=O)N[C@H]5C[C@@H](C(=O)N6CCOCC6)C5(C)C)CC[C@@]4(C)[C@]3(C)CC[C@H]2C1(C)C` (stereo partly drawn) [Example 52, 5-(((1R,3aS,5aR,5bR,7aR,9S,11aR,11bR,13aR)-3a-(((1S,3R)-2,2-dimethyl-3-(morpholine-4-carbonyl)cyclobutyl)carbamoyl)-5a,5b,8,8,11a-pentamethyl-1-(1-methylcyclopropyl)icosahydro-1H-cyclopenta[a]chrysen-9-yl)oxy)-3,3-dimethyl-5-oxopentanoic acid] the same measures were 95%, 85%, 100% and 100%.
In data set [1], `CC1([C@@H]2CC[C@]3(C(=O)N4CCC(OCCN5CCOCC5)CC4)CC[C@]4(C)[C@H](CC[C@@H]5[C@@]6(C)CC[C@H](OC(=O)[C@H]7C[C@@H](C(=O)O)C7(C)C)C(C)(C)[C@@H]6CC[C@]54C)[C@@H]23)CC1` [Example 48, (1R,3S)-2,2-dimethyl-3-((((1R,3aS,5aR,5bR,7aR,9S,11aR,11bR,13aR,13bR)-5a,5b,8,8,11a-pentamethyl-1-(1-methylcyclopropyl)-3a-(4-(2-morpholinoethoxyl)piperidine-1-carbonyl)icosahydro-1H-cyclopenta[a]chrysen-9-yl)oxy)carbonyl)cyclobutane-1-carboxylic acid] displayed a viability at 100 nM of 100% and a viability at 1000 nM of 100%. In data set [2], the inhibition at 0.1 µM was 97% and the inhibition at 1 µM was 99%.
For the compound `CC(C)(C)OC(=O)N1CCN(C(=O)[C@]23CC[C@@H](C4(C)CC4)[C@@H]2[C@H]2CC[C@@H]4[C@@]5(C)CC[C@H](OC(=O)[C@H]6C[C@@H](C(=O)O)C6(C)C)C(C)(C)[C@@H]5CC[C@@]4(C)[C@]2(C)CC3)CC1` [Example 38], in data set [1], the viability at 100 nM came out at 85% and the viability at 1000 nM is 83%. Moreover, in data set [2], the inhibition at 0.1 µM was 68% and the inhibition at 1 µM is 99%.
